Experimental data reported in paper PMC10408569, “Recruitment of hexahydroquinoline as anticancer scaffold targeting inhibition of wild and mutants EGFR (EGFR^WT, EGFR^T790M, and EGFR^L858R)” (Journal of Enzyme Inhibition and Medicinal Chemistry, 2023).

Assay: Cytotoxic effects in vitro on normal lung cells
Format: cell-based
Conditions: IMR-90 normal lung fibroblast cells; human normal lung fibroblast (IMR-90); read-out: IC50, cytotoxicity towards human normal cells IMR-90

SMILES: C#Cc1cccc(Nc2ncnc3cc(OCCOC)c(OCCOC)cc23)c1 [Erlotinib, erlotinib, reference compound]
- IC50: 39.6 ± 1.15 µM
